Source: US5512549A, “Glucagon-like insulinotropic peptide analogs, compositions, and methods of use” (Eli Lilly and Company, priority 1994, dated 1996)

Columns and labels:
Sprague Dawley rats = assay: Rat I.V. Hyperglycemic (150 mg/dl) Clamp Test; assay type: in vivo; conditions: for Insulin Change AUC: 0-15 min; for GIR Change AUC: 0-30 min; for Max Insulin Change: 90 minute test period; for Duration of Insulin Effect: time average insulin change >0 ng/ml
Method: b) Hyperglycemic Clamp Studies
Experiments were conducted in chronically catheterized, normal, male Sprague Dawley rats weighing about 350 grams. At least a week prior to studies, surgery was performed on the rats under isoflurane anesthesia. Two catheters were implanted into the jugular vein for infusions of glucose and peptide and one catheter into the carotid artery for blood sampling. The catheters were exteriorized through the skin at the vertex of the head, filled with glycerol/heparin solution (3:1,v/v) and closed off with a one centimeter stainless steel plug. Animals were housed individually in wire mesh cages and allowed free access to standard rat chow diet and water.
Catheterized rats were fasted overnight prior to studies. On the morning of the experiment, rats were weighed and sampling tubings connected to their indwelling catheters. The tubings were enclosed in a light weight stainless steel spring for protection. During the study, rats were kept unrestrained in a plastic shoe box cage (12"×10"×12") with about one inch of bedding. After 15 minutes of acclimation, a basal sample was taken for measurement of insulin and glucose levels. At time -60 minutes, rats were given a bolus of 20% dextrose to raise plasma glucose to 150 mg/dl. The plasma glucose concentration was maintained at this level for the duration of the study by measuring the plasma glucose concentration every five minutes and adjusting the calibrated variable infusion pump accordingly. Blood samples were collected at -15 and 0 minutes for baseline measurements. Immediately after taking the zero minute sample, peptide (130-155 μM stock concentration, diluted in phosphate buffered saline) was injected via the jugular vein catheter and flushed with saline. Blood samples were taken for glucose and insulin determinations at 2, 4, 6, 8, 10, 12, 15, 20, 25, 30, 40, 50, 60, 70, 80, and 90 minutes. All blood samples were collected into syringes coated with sodium heparin, transferred into micro centrifuge tubes and placed on ice. Blood samples were then centrifuged in a micro centrifuge to separate the plasma component.
Plasma glucose levels were determined on the day of the study by the glucose oxidase method using the Beckman Glucose Analyzer 2, while the insulin concentrations were measured by a commercial kit (Diagnostic Products Corporation) with rat insulin standard.
Insulin change (the change in insulin from the baseline value) was calculated as the difference between the insulin concentration at time t and the average insulin concentration prior to injection of test substance. The area under the insulin change curve was calculated using the trapezoidal rule. Glucose infusion rate change (the percent change in the glucose infusion rate from the baseline value) was calculated as the difference between the glucose infusion rate value at time t and the average glucose infusion rate prior to injection of test substance, divided by the average glucose infusion rate prior to injection of test substance, times 100. The area under the glucose infusion rate change curve was calculated on the absolute glucose infusion rate change values (calculated as the difference between the glucose infusion rate value at time t and the glucose infusion rate prior to injection of test substance) using the trapezoidal rule. Values are listed as the mean ± the standard error of the mean (SEM).

[1] = system: Sprague Dawley or Zucker Diabetic Fatty rats; assay: Rat IV Glucose (1 g/kg) Tolerance Test; assay type: in vivo; conditions: for Insulin Change AUC: 0-15 min
Method: a) Glucose Tolerance Tests
Experiments were conducted in overnight-fasted, conscious, male Sprague Dawley (Charles River) or Zucker Diabetic Fatty (Genetic Models, Inc.) rats weighing approximately 250 (Sprague Dawley rats) or 300 (Zucker Diabetic Fatty rats) grams. Four to five days prior the study, rats were anesthetized with isoflurane, and a polyethylene (PE50) catheter was inserted into the right jugular vein. The catheter was secured with a wound clip, filled with saline containing heparin (2% sodium heparin), and closed with a small stainless steel plug.
After a sixteen-hour fast, twelve chronically cannulated rats were separated into four groups of three rats per group. 0.4 ml of blood was taken from the tail vein, collected into a microtainer tube containing lithium heparin, and immediately placed on ice (zero minute sample). A glucose bolus (1.0 g/kg; 50% glucose (w/v) in water) was administered via the indwelling jugular cannula, and the cannula was rinsed with 200 μl of saline. Twenty seconds later a bolus of test substance 100 μl/100 g body weight of either vehicle (saline containing 0.3% (w/v) bovine serum albumin) or vehicle containing analog! was administered through the jugular cannula, and the cannula was rinsed as before. Rats were bled from the tail again at 2, 5, 10, 20 and 30 minutes after the administration of the glucose bolus, and the samples were treated as described above. At the end of the experiment, blood samples were centrifuged, and the plasma was collected.
Plasma glucose concentrations were determined the day of the experiment using a coupled hexokinase procedure in a clinical chemistry analyzer. Plasma for insulin determinations were diluted with zero calibrator and frozen at -20° C. until time for analysis. Insulin concentrations were determined using a commercial radioimmunoassay kit with rat insulin as the standard.
Insulin change (the change in insulin from the baseline value) was calculated as the difference between the insulin concentration at time t and the insulin concentration at zero time. The area under the insulin change curve was calculated using the trapezoidal rule. Plasma glucose change (the increase in plasma glucose above the baseline value) was calculated as the difference between the plasma glucose concentration at time t and the plasma glucose concentration at zero time. The area under the plasma glucose change curve was calculated using the trapezoidal rule. Values are listed as the mean ± the standard error of the mean (SEM).

“Lys^34 -N^ε -octanoyl-GLP-1(7-37)OH [Lys^34-N^ε-octanoyl-GLP-1(7-37)OH]” was tested, and the “Insulin Change AUC” value (Sprague Dawley rats; I.V. 1.0 μg/kg) was 13.2 ng·min/mL, the “GIR Change AUC” value (Sprague Dawley rats; I.V. 1.0 μg/kg) was 132 mg/kg and the “Max Insulin Change” value (Sprague Dawley rats; I.V. 1.0 μg/kg) was 2.4 ± 0.8 ng/mL. The “Duration of Insulin Effect” value (Sprague Dawley rats; I.V. 1.0 μg/kg) was 4 min, the “Insulin Change at 10 min” value ([1]; IV dose 0.6 mg/kg) was 1.3 ng/mL and the “Max Insulin Change” value ([1]; IV dose 0.6 mg/kg) was 5.0 ng/mL. The “Insulin Change AUC” value ([1]; IV dose 0.6 mg/kg) was 33 ± 8 ng·min/mL, the “Insulin Change at 10 min” value ([1]; IV dose 1.2 mg/kg) was 10.0 ng/mL and the “Max Insulin Change” value ([1]; IV dose 1.2 mg/kg) was 13.1 ng/mL. For the same substance, the “Insulin Change AUC” value ([1]; IV dose 1.2 mg/kg) was 136 ± 30 ng·min/mL.
GLP-1(7-37)OH was tested, and the “Insulin Change AUC” value (Sprague Dawley rats; I.V. 0.05 μg/kg) was 3.0 ± 1.6 ng·min/mL, the “GIR Change AUC” value (Sprague Dawley rats; I.V. 0.05 μg/kg) was 48 ± 22 mg/kg and the “Max Insulin Change” value (Sprague Dawley rats; I.V. 0.05 μg/kg) was 1.6 ± 0.3 ng/mL. The “Duration of Insulin Effect” value (Sprague Dawley rats; I.V. 0.05 μg/kg) was 6 min, the “Insulin Change AUC” value (Sprague Dawley rats; I.V. 0.1 μg/kg) was 7.3 ± 2.8 ng·min/mL and the “GIR Change AUC” value (Sprague Dawley rats; I.V. 0.1 μg/kg) was 150 mg/kg. For the same substance, the “Max Insulin Change” value (Sprague Dawley rats; I.V. 0.1 μg/kg) was 3.6 ± 1.2 ng/mL, the “Duration of Insulin Effect” value (Sprague Dawley rats; I.V. 0.1 μg/kg) was 6 min and the “Insulin Change AUC” value (Sprague Dawley rats; I.V. 0.2 μg/kg) was 5.8 ± 0.9 ng·min/mL. For the same substance, the “GIR Change AUC” value (Sprague Dawley rats; I.V. 0.2 μg/kg) was 154 mg/kg, the “Max Insulin Change” value (Sprague Dawley rats; I.V. 0.2 μg/kg) was 2.8 ± 0.1 ng/mL and the “Duration of Insulin Effect” value (Sprague Dawley rats; I.V. 0.2 μg/kg) was 6 min. For the same substance, the “Insulin Change AUC” value (Sprague Dawley rats; I.V. 0.6 μg/kg) was 14.9 ng·min/mL, the “GIR Change AUC” value (Sprague Dawley rats; I.V. 0.6 μg/kg) was 151 mg/kg and the “Max Insulin Change” value (Sprague Dawley rats; I.V. 0.6 μg/kg) was 4.9 ± 1.3 ng/mL. For the same substance, the “Duration of Insulin Effect” value (Sprague Dawley rats; I.V. 0.6 μg/kg) was 6 min, the “Insulin Change AUC” value (Sprague Dawley rats; I.V. 1.0 μg/kg) was 16.7 ng·min/mL and the “GIR Change AUC” value (Sprague Dawley rats; I.V. 1.0 μg/kg) was 131 mg/kg. For the same substance, the “Max Insulin Change” value (Sprague Dawley rats; I.V. 1.0 μg/kg) was 7.7 ± 0.8 ng/mL, the “Duration of Insulin Effect” value (Sprague Dawley rats; I.V. 1.0 μg/kg) was 6 min and the “Insulin Change AUC” value (Sprague Dawley rats; I.V. 2.0 μg/kg) was 11.5 ng·min/mL. For the same substance, the “GIR Change AUC” value (Sprague Dawley rats; I.V. 2.0 μg/kg) was 152 mg/kg, the “Max Insulin Change” value (Sprague Dawley rats; I.V. 2.0 μg/kg) was 3.6 ± 0.9 ng/mL and the “Duration of Insulin Effect” value (Sprague Dawley rats; I.V. 2.0 μg/kg) was 6 min. For the same substance, the “Insulin Change AUC” value (Sprague Dawley rats; I.V. 4.0 μg/kg) was 10.4 ng·min/mL, the “GIR Change AUC” value (Sprague Dawley rats; I.V. 4.0 μg/kg) was 139 mg/kg and the “Max Insulin Change” value (Sprague Dawley rats; I.V. 4.0 μg/kg) was 2.0 ± 0.4 ng/mL. For the same substance, the “Duration of Insulin Effect” value (Sprague Dawley rats; I.V. 4.0 μg/kg) was 40 min, the “Insulin Change at 10 min” value ([1]; IV dose 0.6 mg/kg) was 5.4 ng/mL and the “Max Insulin Change” value ([1]; IV dose 0.6 mg/kg) was 7.8 ng/mL. For the same substance, the “Insulin Change AUC” value ([1]; IV dose 0.6 mg/kg) was 79 ± 8 ng·min/mL, the “Insulin Change at 10 min” value ([1]; IV dose 0.92 mg/kg) was 3.5 ng/mL and the “Max Insulin Change” value ([1]; IV dose 0.92 mg/kg) was 8.4 ng/mL. For the same substance, the “Insulin Change AUC” value ([1]; IV dose 0.92 mg/kg) was 75 ± 12 ng·min/mL, the “Insulin Change at 10 min” value ([1]; IV dose 1.2 mg/kg) was 4.2 ng/mL and the “Max Insulin Change” value ([1]; IV dose 1.2 mg/kg) was 8.4 ng/mL. For the same substance, the “Insulin Change AUC” value ([1]; IV dose 1.2 mg/kg) was 77 ± 17 ng·min/mL.
